Experiment: xn = mol fraction of the nth substance listed

CCCCCCCCn1cc[n+](C)c1.[Cl-] + O
Settings | electrical conductivity [S/m] | viscosity [mPa·s]
278.15 K, 100 kPa, x1 = 0.0001 | – | 1.534
278.15 K, 100 kPa, x1 = 0.0001668 | – | 1.543
278.15 K, 100 kPa, x1 = 0.0002526 | – | 1.559
278.15 K, 100 kPa, x1 = 0.0003767 | – | 1.575
278.15 K, 100 kPa, x1 = 0.0005495 | – | 1.603
278.15 K, 100 kPa, x1 = 0.000764 | – | 1.642
278.15 K, 100 kPa, x1 = 0.0009813 | – | 1.683
283.15 K, 100 kPa, x1 = 0.0001 | – | 1.316
283.15 K, 100 kPa, x1 = 0.0001668 | – | 1.322
283.15 K, 100 kPa, x1 = 0.0002526 | – | 1.33
283.15 K, 100 kPa, x1 = 0.0003767 | – | 1.346
283.15 K, 100 kPa, x1 = 0.0005495 | – | 1.368
283.15 K, 100 kPa, x1 = 0.000764 | – | 1.404
283.15 K, 100 kPa, x1 = 0.0009813 | – | 1.439
288.15 K, 100 kPa, x1 = 0.0001 | – | 1.151
288.15 K, 100 kPa, x1 = 0.0001668 | – | 1.165
288.15 K, 100 kPa, x1 = 0.0002526 | – | 1.182
288.15 K, 100 kPa, x1 = 0.0003767 | – | 1.206
288.15 K, 100 kPa, x1 = 0.0005495 | – | 1.233
288.15 K, 100 kPa, x1 = 0.000764 | – | 1.27
288.15 K, 100 kPa, x1 = 0.0009813 | – | 1.304
293.15 K, 100 kPa, x1 = 0.0001 | – | 1.01
293.15 K, 100 kPa, x1 = 0.0001668 | – | 1.014
293.15 K, 100 kPa, x1 = 0.0002526 | – | 1.021
293.15 K, 100 kPa, x1 = 0.0003767 | – | 1.031
293.15 K, 100 kPa, x1 = 0.0005495 | – | 1.046
293.15 K, 100 kPa, x1 = 0.000764 | – | 1.068
293.15 K, 100 kPa, x1 = 0.0009813 | – | 1.09
298.15 K, 100 kPa, x1 = 0.0001 | – | 0.898
298.15 K, 100 kPa, x1 = 0.0001668 | – | 0.901
298.15 K, 100 kPa, x1 = 0.0002526 | – | 0.906
298.15 K, 100 kPa, x1 = 0.0003767 | – | 0.916
298.15 K, 100 kPa, x1 = 0.0005495 | – | 0.929
298.15 K, 100 kPa, x1 = 0.000764 | – | 0.947
298.15 K, 100 kPa, x1 = 0.0009813 | – | 0.965
298.15 K, 101.3 kPa, x1 = 4.96e-06 | 0.00314 | –
298.15 K, 101.3 kPa, x1 = 7.53e-06 | 0.00467 | –
298.15 K, 101.3 kPa, x1 = 1.002e-05 | 0.00613 | –
298.15 K, 101.3 kPa, x1 = 1.247e-05 | 0.00756 | –
298.15 K, 101.3 kPa, x1 = 1.481e-05 | 0.00893 | –
298.15 K, 101.3 kPa, x1 = 1.716e-05 | 0.01029 | –
298.15 K, 101.3 kPa, x1 = 1.95e-05 | 0.0116 | –
298.15 K, 101.3 kPa, x1 = 2.177e-05 | 0.0129 | –
298.15 K, 101.3 kPa, x1 = 2.424e-05 | 0.01436 | –
298.15 K, 101.3 kPa, x1 = 2.667e-05 | 0.0158 | –
298.15 K, 101.3 kPa, x1 = 2.939e-05 | 0.0173 | –
303.15 K, 100 kPa, x1 = 0.0001 | – | 0.804
303.15 K, 100 kPa, x1 = 0.0001668 | – | 0.807
303.15 K, 100 kPa, x1 = 0.0002526 | – | 0.812
303.15 K, 100 kPa, x1 = 0.0003767 | – | 0.819
303.15 K, 100 kPa, x1 = 0.0005495 | – | 0.83
303.15 K, 100 kPa, x1 = 0.000764 | – | 0.845
303.15 K, 100 kPa, x1 = 0.0009813 | – | 0.861
308.15 K, 100 kPa, x1 = 0.0001 | – | 0.725
308.15 K, 100 kPa, x1 = 0.0001668 | – | 0.727
308.15 K, 100 kPa, x1 = 0.0002526 | – | 0.732
308.15 K, 100 kPa, x1 = 0.0003767 | – | 0.737
308.15 K, 100 kPa, x1 = 0.0005495 | – | 0.747
308.15 K, 100 kPa, x1 = 0.000764 | – | 0.761
308.15 K, 100 kPa, x1 = 0.0009813 | – | 0.775
313.15 K, 100 kPa, x1 = 0.0001 | – | 0.658
313.15 K, 100 kPa, x1 = 0.0002526 | – | 0.665
313.15 K, 100 kPa, x1 = 0.0003767 | – | 0.669
313.15 K, 100 kPa, x1 = 0.0005495 | – | 0.677
313.15 K, 100 kPa, x1 = 0.000764 | – | 0.689
313.15 K, 100 kPa, x1 = 0.0009813 | – | 0.701

298.15 K, 100 kPa, frequency 0.001 MHz
Settings | electrical conductivity [S/m]
x1 = 0.001709 | 0.532
x1 = 0.002014 | 0.588
x1 = 0.002301 | 0.647
x1 = 0.00266 | 0.716
x1 = 0.002911 | 0.765
x1 = 0.003215 | 0.824
x1 = 0.003519 | 0.889
x1 = 0.003824 | 0.941
x1 = 0.004074 | 0.978
x1 = 0.004467 | 1.02
x1 = 0.004967 | 1.08
x1 = 0.005947 | 1.16
